Results as given in US20080269326A1, “Use of 1-Phenyl-3-Dimethylamino-propane Compounds for Treating Neuropathic Pain” (GRUENENTHAL GmbH, priority 2007, published 2008).
Several values for one entry are separate records, joined by “and”; a condition that tells them apart may be missing. Equal values may be shown once.

Tests used:
Assay type in all cases: in vivo, rat
[1] = system: polyneuropathic pain, withdrawal threshold of rear paw; assay: Polyneuropathy (streptozotocin-induced diabetic neuropathy, STZ), withdrawal threshold by Randall and Selitto
Protocol: (§1) Male Sprague Dawley rats (140-180g, Janvier, France) are kept under standard conditions (06.00-18.00 hours light, 18.00-06.00 hours darkness; 20°-24° C. room temperature; 35-70% relative atmospheric humidity, tap water and standard feed as desired) in groups of five animals in Macrolon type 4 cages.
Rats receive a single i.p. dose of Streptozotocin (STZ, Sigma Aldrich Chemie, Germany) or vehicle (0.1 mM citrate buffer, pH 4.6). After one week the blood sugar values are determined and animals treated with STZ that have a blood sugar value of ≧17 mM are classed as diabetic in the experiment. Diabetic animals develop a hypersensitivity in the rear paws. The hypersensitivity to a pressure stimulus can be measured using a pressure pain instrument (algesiometer; Ugo Basile, Italy) according to the method of Randall and Selitto (Arch. Int. Pharmcodyn. 1957; 111: 409-19) in diabetic animals compared to healthy control animals of the same weight, in the third week after STZ treatment. After the animals had become accustomed to the surroundings, the rear right paw of damaged (diabetic) and undamaged (healthy) animals was subjected to increasing pressure on the upper side of the paw until the corresponding paw is withdrawn or the animal gives a vocal response. This value defines the withdrawal threshold of a test time point. Diabetic and healthy animals are tested before and at various times after administration of the substance or vehicle. For each animal the difference between the test value and pre-test is determined, and for the groups, each consisting of ten animals, the result is expressed as the mean value (MW) and standard error of the mean (SEM). The difference between the mean difference values of the diabetic and healthy animals defines the polyneuropathy-induced hypersensitivity. The statistical significance of the effect of a substance is determined on the basis of the difference values with respect to the vehicle group for diabetic and healthy animals by means of bifactorial variance analysis and post hoc analysis according to Bonferroni.

[2] = system: mononeuropathic pain, withdrawal threshold of rear paw; assay: Mononeuropathy (spinal nerve ligature, SNL), withdrawal threshold by electronic von Frey filament
Protocol: as §1
Under pentobarbital narcosis (Narcoren, 60 mg/kg i.p., Merial GmbH, Germany) the spinal nerves L5 and L6 are tightly bound unilaterally on the left side with a silk thread (NC silk black, USP 5/0, metric 1, Braun Melsungen A G, Germany) (Kim and Chung, Pain 1992; 50: 355-63). After the operation the animals were allowed to recover for one week and within this time developed a hypersensitivity on the ipsilateral (left) paw. The hypersensitivity to a pressure stimulus can be measured using an electronic von Frey filament (Somedic, Sweden). For this purpose the animals are placed on a grating under a hood. After the animals became accustomed to the surroundings the damaged (ipsilateral, left) and undamaged (contralateral, right) rear paws are subjected to increasing pressure on the underside of the paw until the animal tries to retract the corresponding paw. The median value of five tests defines the withdrawal threshold of a test time point. The animals are tested on both rear paws before and at various times after administration of the substance or vehicle. For each animal the difference between the test value and pre-test for the ipsilateral and contralateral side is determined, and the result is expressed as the mean value (MW) and standard error of the mean (SEM) for the groups consisting in each case of 10 animals. The difference between the mean difference values of the ipsilateral and contralateral side defines the hypersensitivity induced by mononeuropathy. The statistical significance of the effect of a substance is determined on the basis of the difference values compared to the vehicle group for the ipsilateral and contralateral side, by means of bifactorial variance analysis and post hoc analysis according to Bonferroni.

[3] = system: cold allodynia in morphine-tolerant Bennett animals; assay: Bennett model cold allodynia in morphine-tolerant animals
Protocol: Sprague-Dawley rats weighing 140-160 g are provided with four loose ligatures of the right sciatic nerve under nembutal narcosis. The animals develop a hypersensitivity in the paw innervated by the damaged nerve, which after a healing phase of one week is quantified over about four weeks by means of a 4° C. cold metal plate (cold allodynia). The animals are observed for two minutes on this plate and the number of retractive movements of the damaged paw are measured. The effect of the substance is determined with reference to the base value before application of the substance, at four different times over a period of one hour(15, 30, 45 and 60 minutes after application) and the resultant area under the curve (AUD) as well as the inhibition of cold allodynia at the individual measurement points is expressed in percent effect with reference to the vehicle control (AUD) and to the initial value (individual measurement points). The cohort size is n=10.
The underlying question is the action of a test substance having a presumably opioid action mechanism in patients who are tolerant or treatment-resistant to morphine. […] The action of test substances in naive (non-morphine-tolerant) animals and morphine-tolerant animals is compared in Table 4. […] Morphine [10 mg/kg i.p.], Compound 9 [10 and 21.5 mg/kg i.p.], Compound 10 [0.46 and 1 mg/kg i.p.], Compound 4 [21.5 mg/kg i.p.] and Compound 11 [21.5 mg/kg i.p.] were tested analogously to Example 1.

## CC[C@@H](c1cccc(O)c1)[C@@H](C)CN(C)C [Compound 9, (1R,2R)-3-(3-dimethylamino-1-ethyl-2-methylpropyl)-phenol]
[1]; 0.1 mg/kg i.v., Diabetes, 15 min
  withdrawal threshold, test value - pre-test value (MW): 1.0 g
[1]; 0.1 mg/kg i.v., Diabetes, 30 min
  withdrawal threshold, test value - pre-test value (MW): -2.0 g
[1]; 0.1 mg/kg i.v., Diabetes, 45 min
  withdrawal threshold, test value - pre-test value (MW): 6.0 g
[1]; 0.1 mg/kg i.v., Diabetes, 60 min
  withdrawal threshold, test value - pre-test value (MW): -2.0 g
[1]; 0.1 mg/kg i.v., Naive, 15 min
  withdrawal threshold, test value - pre-test value (MW): 4.0 g
[1]; 0.1 mg/kg i.v., Naive, 30 min
  withdrawal threshold, test value - pre-test value (MW): -12.0 g
[1]; 0.1 mg/kg i.v., Naive, 45 min
  withdrawal threshold, test value - pre-test value (MW): -2.0 g
[1]; 0.1 mg/kg i.v., Naive, 60 min
  withdrawal threshold, test value - pre-test value (MW): -5.0 g
[1]; 0.316 mg/kg i.v., Diabetes, 15 min
  withdrawal threshold, test value - pre-test value (MW): 35.0 g
[1]; 0.316 mg/kg i.v., Diabetes, 30 min
  withdrawal threshold, test value - pre-test value (MW): 30.0 g
[1]; 0.316 mg/kg i.v., Diabetes, 45 min
  withdrawal threshold, test value - pre-test value (MW): 24.0 g
[1]; 0.316 mg/kg i.v., Diabetes, 60 min
  withdrawal threshold, test value - pre-test value (MW): 16.0 g
[1]; 0.316 mg/kg i.v., Naive, 15 min
  withdrawal threshold, test value - pre-test value (MW): 17.0 g
[1]; 0.316 mg/kg i.v., Naive, 30 min
  withdrawal threshold, test value - pre-test value (MW): -5.0 g
[1]; 0.316 mg/kg i.v., Naive, 45 min
  withdrawal threshold, test value - pre-test value (MW): -5.0 g
[1]; 0.316 mg/kg i.v., Naive, 60 min
  withdrawal threshold, test value - pre-test value (MW): 2.0 g
[1]; 1 mg/kg i.v., Diabetes, 45 min
  withdrawal threshold, test value - pre-test value (MW): 34.0 g
[1]; 1 mg/kg i.v., Diabetes, 60 min
  withdrawal threshold, test value - pre-test value (MW): 27.0 g
[1]; 1 mg/kg i.v., Naive, 15 min
  withdrawal threshold, test value - pre-test value (MW): 42.0 g
[1]; 1 mg/kg i.v., Naive, 30 min
  withdrawal threshold, test value - pre-test value (MW): 28.0 g
[1]; 1 mg/kg i.v., Naive, 45 min
  withdrawal threshold, test value - pre-test value (MW): -2.0 g
[1]; 1 mg/kg i.v., Naive, 60 min
  withdrawal threshold, test value - pre-test value (MW): 7.0 g
[1]; 1 mg/kg i.v., after 15 minutes and 30 minutes, diabetic animals
  inhibition of the polyneuropathically-induced withdrawal threshold reduction: complete inhibition
[1]; i.v., healthy control animals
  statistically significant minimal effective dose: 1 mg/kg
[1]; i.v., polyneuropathic pain model
  dosage at which complete inhibition is reached: 1 mg/kg
[1]; i.v., rear paw of diabetic rats
  statistically significant minimal effective dose: 0.316 mg/kg and 0.3 mg/kg
[2]; 0.1 mg/kg i.v., Contra, 30 min
  withdrawal threshold, test value - pre-test value (MW): 0.06 g
[2]; 0.1 mg/kg i.v., Contra, 60 min
  withdrawal threshold, test value - pre-test value (MW): -3.13 g
[2]; 0.1 mg/kg i.v., Contra, 180 min
  withdrawal threshold, test value - pre-test value (MW): -4.30 g
[2]; 0.1 mg/kg i.v., Ipsi, 30 min
  withdrawal threshold, test value - pre-test value (MW): 1.74 g
[2]; 0.1 mg/kg i.v., Ipsi, 60 min
  withdrawal threshold, test value - pre-test value (MW): -0.59 g
[2]; 0.1 mg/kg i.v., Ipsi, 180 min
  withdrawal threshold, test value - pre-test value (MW): -2.24 g
[2]; 0.316 mg/kg i.v., Contra, 30 min
  withdrawal threshold, test value - pre-test value (MW): 0.39 g
[2]; 0.316 mg/kg i.v., Contra, 60 min
  withdrawal threshold, test value - pre-test value (MW): ta −6.20 g
[2]; 0.316 mg/kg i.v., Contra, 180 min
  withdrawal threshold, test value - pre-test value (MW): 2.21 g
[2]; 0.316 mg/kg i.v., Ipsi, 30 min
  withdrawal threshold, test value - pre-test value (MW): 5.78 g
[2]; 0.316 mg/kg i.v., Ipsi, 60 min
  withdrawal threshold, test value - pre-test value (MW): 2.21 g
[2]; 0.316 mg/kg i.v., Ipsi, 180 min
  withdrawal threshold, test value - pre-test value (MW): 1.68 g
[2]; 1 mg/kg i.v., Contra, 30 min
  withdrawal threshold, test value - pre-test value (MW): 2.90 g
[2]; 1 mg/kg i.v., Contra, 60 min
  withdrawal threshold, test value - pre-test value (MW): 2.45 g
[2]; 1 mg/kg i.v., Contra, 180 min
  withdrawal threshold, test value - pre-test value (MW): -6.65 g
[2]; 1 mg/kg i.v., Ipsi, 30 min
  withdrawal threshold, test value - pre-test value (MW): 12.86 g
[2]; 1 mg/kg i.v., Ipsi, 60 min
  withdrawal threshold, test value - pre-test value (MW): 7.09 g
[2]; 1 mg/kg i.v., Ipsi, 180 min
  withdrawal threshold, test value - pre-test value (MW): 2.01 g
[2]; 3.16 mg/kg i.v., Contra, 30 min
  withdrawal threshold, test value - pre-test value (MW): 8.02 g
[2]; 3.16 mg/kg i.v., Contra, 60 min
  withdrawal threshold, test value - pre-test value (MW): 2.85 g
[2]; 3.16 mg/kg i.v., Contra, 180 min
  withdrawal threshold, test value - pre-test value (MW): -0.34 g
[2]; 3.16 mg/kg i.v., Ipsi, 30 min
  withdrawal threshold, test value - pre-test value (MW): 18.43 g
[2]; 3.16 mg/kg i.v., Ipsi, 60 min
  withdrawal threshold, test value - pre-test value (MW): 20.32 g
[2]; 3.16 mg/kg i.v., Ipsi, 180 min
  withdrawal threshold, test value - pre-test value (MW): 11.06 g
[2]; 10 mg/kg i.v., Contra, 30 min
  withdrawal threshold, test value - pre-test value (MW): 31.85 g
[2]; 10 mg/kg i.v., Contra, 60 min
  withdrawal threshold, test value - pre-test value (MW): 10.62 g
[2]; 10 mg/kg i.v., Contra, 180 min
  withdrawal threshold, test value - pre-test value (MW): 4.51 g
[2]; 10 mg/kg i.v., Ipsi, 60 min
  withdrawal threshold, test value - pre-test value (MW): [drawing 7] 19.47 g
[2]; 10 mg/kg i.v., Ipsi, 180 min
  withdrawal threshold, test value - pre-test value (MW): 13.65 g
[2]; 10 mg/kg i.v., after 30 minutes, ipsilateral
  inhibition of the mononeuropathically-induced withdrawal threshold reduction: full inhibition
[2]; i.v., contralateral withdrawal threshold
  statistically significant minimal effective dose: 10 mg/kg
[2]; i.v., ipsilateral rear paw, mononeuropathic rats
  statistically significant minimal effective dose: 1 mg/kg
[2]; i.v., mononeuropathic pain model
  dosage at which complete inhibition is reached: 10 mg/kg
[3]; 10 mg/kg i.p.
  Cold allodynia (% AUD) Morphine-tolerant animals: 37.3 % AUD
[3]; 21.5 mg/kg i.p.
  Cold allodynia (% AUD) Morphine-tolerant animals: 36.7 % AUD
